Assay results as given in patent US7361680B2, “Indole compounds useful for the treatment of cancer” (The Regents of the University of California, priority 1999, dated 2008).

What was measured:
[1] = system: normal peripheral blood lymphocytes (PBL); assay: Viability of normal peripheral blood lymphocytes, erythrocin B exclusion assay; assay type: cell-based, human; conditions: FIG. 1
normal B cells = assay: Viability of normal B lymphocytes (anti-CD19 staining, DiOC6 fluorescence); assay type: cell-based, human; conditions: 1.0 mM, 24 hours
Description: Then B lymphocytes were identified by staining with anti-CD19 antibody, and viability was assessed by DiOC6 fluorescence.

CLL cells [2] = assay: Viability of CLL cells taken from patients before and after oral etodolac; assay type: in vivo, human; conditions: for in vitro survival of CLL cells after treatment compared to before treatment: 400 mg tablet, second tablet 12 hours later
Description: The circles show CLL cells before etodolac treatment. In FIGS. 6-7, the upward pointing triangles represent CLL cell viability after etodolac treatment, wherein the cells are dispersed in medium containing the pretreatment plasma. The downward pointing triangles are CLL cells after treatment maintained in medium with the post-treatment plasma. […] Cells were analyzed within 30 minutes in a Becton Dickinson FAC-Scalibur cytofluorometer. After suitable comprehension, fluorescence was recorded at different wavelength: DiOC6 and DHR at 525 nm (Fl-1) and PI at 600 nm (FL-3).

PC-3 (Prostate) = assay: Cytotoxicity by MTT assay, PC-3; assay type: cell-based; conditions: 72 h, three days continuous exposure
LNCaP-FGC (Prostate) = assay: Cytotoxicity by MTT assay, LNCaP-FGC; assay type: cell-based; conditions: 72 h, three days continuous exposure
Alva-31 (Prostate) = assay: Cytotoxicity by MTT assay, Alva-31; assay type: cell-based; conditions: 72 h, three days continuous exposure
OVCAR-3 (Ovarian) = assay: Cytotoxicity by MTT assay, OVCAR-3; assay type: cell-based; conditions: Homo sapiens, 72 h, three days continuous exposure
MDA-MB-231 (Breast) = assay: Cytotoxicity by MTT assay, MDA-MB-231; assay type: cell-based; conditions: Homo sapiens, 72 h, three days continuous exposure
HCT-116 (Colon) = assay: Cytotoxicity by MTT assay, HCT-116; assay type: cell-based; conditions: Homo sapiens, 72 h, three days continuous exposure
SW260 (Colon) = assay: Cytotoxicity by MTT assay, SW260; assay type: cell-based; conditions: 72 h, three days continuous exposure
A549 (Lung) = assay: Cytotoxicity by MTT assay, A549; assay type: cell-based; conditions: Homo sapiens, 72 h, three days continuous exposure
Mcl-1 = Mcl-1 level in LNCaP cells, SDS-PAGE immunoblot; assay type: cell-based; conditions: 100 μM, as early as two hours, LNCaP; FIG. 11A
Bag-1 = Bag-1 level in LNCaP cells, SDS-PAGE immunoblot; assay type: cell-based; conditions: 100 μM, as early as two hours, FIG. 11B
Bcl-2 and Bax = Bcl-2 and Bax levels after etodolac incubation; assay type: cell-based; conditions: data not shown
prostate cancer tissue = assay: Prostatectomy tissue samples incubated 72 hours, histology; assay type: cell-based
Description: The tissues were next fixed in 4% paraformaldehyde in PBS, embedded in paraffin, sectioned and stained with hematoxylin and eosin.

[3] = in vivo; cited from earlier work
CLL cells [4] = assay: Viability of CLL cells, erythrocin B exclusion assay

CCc1cccc2c3c([nH]c12)C(CC)(CC(=O)O)OCC3 (racemic) [etodolac, 1,8-Diethyl-1,3,4,9-tetrahydropyrano[3,4-b]indole-1-acetic acid]
concentration at which significant death of normal PBLs occurred [1]: 800 µM | viability of normal B cells compared to control cultures (normal B cells): did not reduce the viability | in vitro survival of CLL cells after treatment compared to before treatment (CLL cells [2]; patient one, FIG. 7): less dramatic but similar effect | in vitro survival of CLL cells after treatment compared to before treatment (CLL cells [2]; patient two, FIG. 6): shortened survival | cell death by apoptosis (DiOC6 staining, dots in left lower box) after versus before treatment (CLL cells [2]; patient two, detectable at 12 hours, increases after 24 hours, FIG. 8): much higher | IC50 (PC-3 (Prostate)): 340 ± 20 µM | IC50 (LNCaP-FGC (Prostate)): 400 ± 35 µM | IC50 (Alva-31 (Prostate)): > 1000 µM | IC50 (OVCAR-3 (Ovarian)): > 1000 µM | IC50 (MDA-MB-231 (Breast)): > 1000 µM | IC50 (HCT-116 (Colon)): 450 ± 15 µM | IC50 (SW260 (Colon)): 1000 ± 120 µM | IC50 (A549 (Lung)): > 1000 µM | Mcl-1 levels (Mcl-1): fell | Bag-1 levels (Bag-1): fell | Bcl-2 and Bax levels (Bcl-2 and Bax): did not alter | activity in prostatectomy samples (prostate cancer tissue): active | effect on normal basal cells in prostatectomy samples (prostate cancer tissue): did not affect normal basal cells | toxicity to tumor cells in prostatectomy samples (prostate cancer tissue; FIG. 15): selectively toxic to the tumor cells | elimination half-life [3]: 6 to 8 h | CLL cells killed (CLL cells [4]; 200 μM, 48 hour exposure, FIG. 2): 50% | cytotoxic effect on CLL cells, either drug alone (CLL cells [4]; fludarabine 10 nM or etodolac 10 μM alone, 48 hours, FIG. 3): ineffective
